Measured values: US20210236443A1, “METHOD OF TREATMENT OF NON-ALCOHOLIC STEATOHEPATITIS, NASH” (KRISH BIOTECH RESEARCH PRIVATE LIMITED, priority 2018, published 2021)

How the values were obtained:
MCP-1 = MCP-1 release in LPS-stimulated RAW 264.7 cells; assay type: cell-based; conditions: Mus musculus, RAW264.7, LPS 10 ng/ml, 2.5 hours, compound pre-incubation 1 hour
Experimental: (§1) Assay for TNFα and MCP-1 Release in RAW 264.7 Cells:
(§2) Cells were seeded at a density of 50000 cells/well/100 μl in a 96 well plate and left overnight in the CO2 incubator under normal cell culture conditions for adherence. Next day, old media was removed and fresh media added per well with compounds in duplicate for 1 hour with 0.1% DMSO. Cells were stimulated with LPS (Lipopolysaccharides) at 10 ng/ml and incubated at cell culture conditions for 2.5 hours. Post incubation, the supernatant was collected in fresh 96 well plate and stored at −80 degree for TNF-α, and MCP-1 estimation.
(§3) The dose-response curve was analyzed using Sigma Plot/Graph Pad. The IC50 (concentration of the test compounds where 50% of compounds' maximal activity is observed) values were calculated from the dose-response curve.

TNFα = TNFα release in LPS-stimulated RAW 264.7 cells; assay type: cell-based; conditions: Mus musculus, RAW264.7, LPS 10 ng/ml, 2.5 hours, compound pre-incubation 1 hour, read-out: TNF-alpha IC50
Experimental: as §1, §2, §3

| IC50 (MCP-1) | IC50 (TNFα) | SMILES |
| --- | --- | --- |
| 290 nM | 5650 nM | CC1(c2ccc(-c3ccc(F)cc3COc3ccc(CCCC(=O)O)cc3)cc2)CC1 [SI. No. 2, 4-(4-((4-Fluoro-4′-(1-methylcyclopropyl)-[1,1′-biphenyl]-2-yl)methoxy)phenyl)butanoic acid] |
| 2040 nM | > 10000 nM | O=C(O)CCCc1ccc(OCc2cc(F)ccc2-c2ccc(C3CC3)s2)cc1 [SI. No. 8, 4-(4-((2-(5-Cyclopropylthiophen-2-yl)-S-fluorobenzyl)oxy)phenyl)butanoic acid] |
| 1080 nM | 660 nM | CC1(c2ccc(-c3ccc(F)cc3COc3ccc(CCCC(=O)O)cc3)s2)CC1 [SI. No. 20, 4-(4-((5-Fluoro-2-(5-(1-methylcyclopropyl)thiophen-2-yl)benzyl)oxy)phenyl) butanoic acid] |
| 230 nM | 630 nM | O=C(O)CCCc1ccc(OCc2cc(F)ccc2-c2ncc(C3CC3)s2)cc1 [SI. No. 24, 4-(4-((2-(5-Cyclopropylthiazol-2-yl)-S-fluorobenzyl)oxy)phenyl)butanoic acid] |
